Results reported in PMC9459060 (Journal of Ginseng Research, 2022).

Molecular target: T1, SLC5A1 (Homo sapiens, UniProt P13866)
T1 sequence (P13866 1-664): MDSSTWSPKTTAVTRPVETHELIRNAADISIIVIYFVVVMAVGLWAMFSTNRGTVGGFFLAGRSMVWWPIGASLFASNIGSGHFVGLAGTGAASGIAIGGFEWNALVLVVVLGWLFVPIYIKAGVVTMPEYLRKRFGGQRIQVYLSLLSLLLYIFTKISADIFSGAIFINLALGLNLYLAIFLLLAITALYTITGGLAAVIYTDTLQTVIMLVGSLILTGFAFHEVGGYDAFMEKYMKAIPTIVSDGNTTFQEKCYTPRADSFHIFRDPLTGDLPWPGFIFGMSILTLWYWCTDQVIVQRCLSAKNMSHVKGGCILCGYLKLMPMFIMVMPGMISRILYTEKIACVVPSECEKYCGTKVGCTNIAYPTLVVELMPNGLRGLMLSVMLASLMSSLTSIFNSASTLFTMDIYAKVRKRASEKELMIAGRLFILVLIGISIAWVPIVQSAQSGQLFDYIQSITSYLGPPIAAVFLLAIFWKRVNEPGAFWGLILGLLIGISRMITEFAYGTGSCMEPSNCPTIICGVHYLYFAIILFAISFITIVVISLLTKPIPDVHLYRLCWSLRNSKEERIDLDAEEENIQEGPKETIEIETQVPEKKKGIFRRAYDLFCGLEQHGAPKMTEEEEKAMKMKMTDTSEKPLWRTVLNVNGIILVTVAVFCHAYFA
Assay: SPR
Format: binding

Which Kd does the source give for `CC(C)=CCC[C@](C)(O[C@@H]1O[C@H](CO)[C@@H](O)[C@H](O)[C@H]1O)[C@H]1CC[C@]2(C)[C@@H]1[C@H](O)C[C@@H]1[C@@]3(C)CC[C@H](O[C@@H]4O[C@H](CO)[C@@H](O)[C@H](O)[C@H]4O[C@@H]4O[C@H](CO)[C@@H](O)[C@H](O)[C@H]4O)C(C)(C)[C@@H]3CC[C@]12C` [ginsenoside Rd] here?
The Kd was 680 nM.
